Test results reported in ChEMBL document CHEMBL1201862, “PubChem BioAssay data set” (2004).
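All cell lines were grown in 96-well plates and treated with compound for 48 hours. GI50 is the concentration that inhibits growth by half.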 The source made the active and inactive calls. Rule as the data show it: active = GI50 up to about 1.1 µM and inactive = higher.

Legend:
Assay in all cases: inhibition of tumour cell growth, NCI panel, 48 h
[1] = system: A498
[2] = system: BT-549
[3] = system: CCRF-CEM
[4] = system: EKVX
[5] = system: HOP-62
[6] = system: IGROV-1
[7] = system: K562
[8] = system: LOX IMVI
[9] = system: MCF7
[10] = system: MDA-MB-231
[11] = system: MDA-N
[12] = system: Malme-3M
[13] = system: OVCAR-4
[14] = system: OVCAR-8
[15] = system: PC-3
[16] = system: SK-MEL-5
[17] = system: SK-OV-3
[18] = system: SNB-75
[19] = system: SW-620
[20] = system: TK-10

Row | SMILES | GI50 [1] | GI50 [2] | GI50 [3] | GI50 [4] | GI50 [5] | GI50 [6] | GI50 [7] | GI50 [8] | GI50 [9] | GI50 [10] | GI50 [11] | GI50 [12] | GI50 [13] | GI50 [14] | GI50 [15] | GI50 [16] | GI50 [17] | GI50 [18] | GI50 [19] | GI50 [20]
1 | COC1/C=C/C(C)C(C(C)C(OC)C(C)CCC(=O)C(C)C(C/C=C/N(C)C=O)OC)OC(=O)/C=C/C=C(\C)CC(OC)C(OC)C2=CC(=O)O[C@@H](C(C)C(OC)CC(OC)/C=C/C(C)C(O)C1)[C@H]2O (stereo not given in full) | 0.0723 µM (active) | 0.117 µM (active) | 0.039 µM (active) | 0.154 µM (active) | 0.0705 µM (active) | 0.119 µM (active) | 0.0379 µM (active) | 0.0145 µM (active) | 0.208 µM (active) | 0.0773 µM (active) | 0.208 µM (active) | 0.148 µM (active) | 0.121 µM (active) | 0.22 µM (active) | 0.0855 µM (active) | 0.0904 µM (active) | 0.122 µM (active) | 0.0268 µM (active) | 0.12 µM (active) | 0.0745 µM (active)
2 | Cc1cc(NC(=O)C(=O)Cc2nc3ccccc3s2)ccc1Cl | > 100 µM (inactive) | > 100 µM (inactive) | > 100 µM (inactive) | > 100 µM (inactive) | > 100 µM (inactive) | > 100 µM (inactive) | > 100 µM (inactive) | > 100 µM (inactive) | > 100 µM (inactive) | > 100 µM (inactive) | > 100 µM (inactive) | > 100 µM (inactive) | > 100 µM (inactive) | > 100 µM (inactive) | > 100 µM (inactive) | > 100 µM (inactive) | > 100 µM (inactive) | > 100 µM (inactive) | > 100 µM (inactive) | > 100 µM (inactive)
3 | O=C1/C(=C\c2cccc(Oc3ccccc3)c2)S(=O)(=O)C(c2ccccc2)N1c1ccc(Cl)cc1 (stereo not given) | 34.4 µM (inactive) | 22.6 µM (inactive) | 12.3 µM (inactive) | 23 µM (inactive) | 27.8 µM (inactive) | 14.7 µM (inactive) | 10.6 µM (inactive) | 10.4 µM (inactive) | 12.6 µM (inactive) | 14.8 µM (inactive) | 14.6 µM (inactive) | 18.2 µM (inactive) | 13.1 µM (inactive) | 16.9 µM (inactive) | 17.1 µM (inactive) | 13.6 µM (inactive) | 32.2 µM (inactive) | 30.4 µM (inactive) | 16.7 µM (inactive) | 92.3 µM (inactive)
4 | O=C(CCN1CC2CCC(CC2)C1)c1cccs1 | > 87.7 µM (inactive) | 21.4 µM (inactive) | 1.94 µM (inactive) | 19.1 µM (inactive) | 19.3 µM (inactive) | 8.73 µM (inactive) | 17.5 µM (inactive) | 10.7 µM (inactive) | 8.59 µM (inactive) | 18.2 µM (inactive) | 17.1 µM (inactive) | 21.1 µM (inactive) | 30.8 µM (inactive) | 18.7 µM (inactive) | 16.7 µM (inactive) | 40.1 µM (inactive) | > 37.8 µM (inactive) | 19.2 µM (inactive) | 2.79 µM (inactive) | 8.73 µM (inactive)
5 | CCOC(=O)CC1CCN(C(=O)c2ccccc2)C2Cc3c([nH]c4ccccc34)C12C[N+](=O)[O-] (stereo not given) | > 100 µM (inactive) | > 100 µM (inactive) | 12.6 µM (inactive) | > 100 µM (inactive) | 46.1 µM (inactive) | 58.7 µM (inactive) | 36.4 µM (inactive) | > 100 µM (inactive) | 41 µM (inactive) | > 100 µM (inactive) | > 100 µM (inactive) | > 100 µM (inactive) | > 100 µM (inactive) | 79.3 µM (inactive) | 43.5 µM (inactive) | 57.8 µM (inactive) | > 100 µM (inactive) | 56.6 µM (inactive) | > 100 µM (inactive) | > 100 µM (inactive)
6 | O=[N+]([O-])C(Cl)=C/C(=C(\Cl)SCc1ccccc1)[N+](=O)[O-] | 27 µM (inactive) | 14.7 µM (inactive) | 3.24 µM (inactive) | 17.7 µM (inactive) | 18.9 µM (inactive) | 28.3 µM (inactive) | 13.3 µM (inactive) | 16.5 µM (inactive) | 38.2 µM (inactive) | 27.7 µM (inactive) | 23.4 µM (inactive) | 20.2 µM (inactive) | 18.1 µM (inactive) | 23.5 µM (inactive) | 22.1 µM (inactive) | 20.8 µM (inactive) | 59.7 µM (inactive) | 49.5 µM (inactive) | 21.2 µM (inactive) | 23.7 µM (inactive)
7 | OCCCCCNc1c2ccccc2nc2ccccc12 | 3.73 µM (inactive) | 6.17 µM (inactive) | 2.5 µM (inactive) | 3.4 µM (inactive) | 1.38 µM (inactive) | 3.03 µM (inactive) | 2.37 µM (inactive) | 1.89 µM (inactive) | 2.33 µM (inactive) | 2.74 µM (inactive) | 2.54 µM (inactive) | 1.9 µM (inactive) | 2.31 µM (inactive) | 2.34 µM (inactive) | 1.98 µM (inactive) | 1.71 µM (inactive) | 3.05 µM (inactive) | 5.52 µM (inactive) | 2.55 µM (inactive) | 3.6 µM (inactive)
8 | CCC1C2Cc3ccc(O)cc3C1(CC)CCN2C (stereo not given) | > 100 µM (inactive) | > 100 µM (inactive) | > 100 µM (inactive) | > 100 µM (inactive) | > 100 µM (inactive) | > 100 µM (inactive) | > 100 µM (inactive) | > 100 µM (inactive) | > 100 µM (inactive) | > 100 µM (inactive) | > 100 µM (inactive) | > 100 µM (inactive) | > 100 µM (inactive) | > 100 µM (inactive) | > 100 µM (inactive) | > 100 µM (inactive) | > 100 µM (inactive) | > 100 µM (inactive) | > 100 µM (inactive) | > 100 µM (inactive)
